Source: ChEMBL document CHEMBL3991601, “The target landscape of clinical kinase drugs” (Science, 2017)
Calls of active or inactive are those of the source.

Legend:
[1] = biological target: Cyclin-dependent kinase 2 (Homo sapiens, UniProt P24941)
[2] = biological target: Serine/threonine-protein kinase Nek7 (Homo sapiens, UniProt Q8TDX7)
[3] = biological target: Epidermal growth factor receptor (Homo sapiens, UniProt P00533)
[4] = biological target: Dual specificity protein kinase CLK4 (Homo sapiens, UniProt Q9HAZ1)
Dual specificity protein kinase CLK4, sequence (Q9HAZ1 whole entry): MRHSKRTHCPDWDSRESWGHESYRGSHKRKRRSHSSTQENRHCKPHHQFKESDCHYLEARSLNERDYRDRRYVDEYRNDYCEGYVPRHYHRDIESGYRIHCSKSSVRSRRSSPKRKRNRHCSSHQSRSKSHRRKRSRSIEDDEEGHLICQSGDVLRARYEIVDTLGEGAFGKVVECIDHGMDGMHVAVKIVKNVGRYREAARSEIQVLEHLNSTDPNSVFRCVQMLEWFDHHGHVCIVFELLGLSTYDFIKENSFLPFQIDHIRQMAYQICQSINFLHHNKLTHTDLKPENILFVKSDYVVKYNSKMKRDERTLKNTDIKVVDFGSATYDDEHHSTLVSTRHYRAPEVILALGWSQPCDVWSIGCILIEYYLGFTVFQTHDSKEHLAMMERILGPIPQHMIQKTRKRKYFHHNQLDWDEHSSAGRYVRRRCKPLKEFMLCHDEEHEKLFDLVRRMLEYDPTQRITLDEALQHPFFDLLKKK

[5] = biological target: Proto-oncogene tyrosine-protein kinase receptor Ret (Homo sapiens, UniProt P07949)
Proto-oncogene tyrosine-protein kinase receptor Ret, sequence (P07949 whole entry): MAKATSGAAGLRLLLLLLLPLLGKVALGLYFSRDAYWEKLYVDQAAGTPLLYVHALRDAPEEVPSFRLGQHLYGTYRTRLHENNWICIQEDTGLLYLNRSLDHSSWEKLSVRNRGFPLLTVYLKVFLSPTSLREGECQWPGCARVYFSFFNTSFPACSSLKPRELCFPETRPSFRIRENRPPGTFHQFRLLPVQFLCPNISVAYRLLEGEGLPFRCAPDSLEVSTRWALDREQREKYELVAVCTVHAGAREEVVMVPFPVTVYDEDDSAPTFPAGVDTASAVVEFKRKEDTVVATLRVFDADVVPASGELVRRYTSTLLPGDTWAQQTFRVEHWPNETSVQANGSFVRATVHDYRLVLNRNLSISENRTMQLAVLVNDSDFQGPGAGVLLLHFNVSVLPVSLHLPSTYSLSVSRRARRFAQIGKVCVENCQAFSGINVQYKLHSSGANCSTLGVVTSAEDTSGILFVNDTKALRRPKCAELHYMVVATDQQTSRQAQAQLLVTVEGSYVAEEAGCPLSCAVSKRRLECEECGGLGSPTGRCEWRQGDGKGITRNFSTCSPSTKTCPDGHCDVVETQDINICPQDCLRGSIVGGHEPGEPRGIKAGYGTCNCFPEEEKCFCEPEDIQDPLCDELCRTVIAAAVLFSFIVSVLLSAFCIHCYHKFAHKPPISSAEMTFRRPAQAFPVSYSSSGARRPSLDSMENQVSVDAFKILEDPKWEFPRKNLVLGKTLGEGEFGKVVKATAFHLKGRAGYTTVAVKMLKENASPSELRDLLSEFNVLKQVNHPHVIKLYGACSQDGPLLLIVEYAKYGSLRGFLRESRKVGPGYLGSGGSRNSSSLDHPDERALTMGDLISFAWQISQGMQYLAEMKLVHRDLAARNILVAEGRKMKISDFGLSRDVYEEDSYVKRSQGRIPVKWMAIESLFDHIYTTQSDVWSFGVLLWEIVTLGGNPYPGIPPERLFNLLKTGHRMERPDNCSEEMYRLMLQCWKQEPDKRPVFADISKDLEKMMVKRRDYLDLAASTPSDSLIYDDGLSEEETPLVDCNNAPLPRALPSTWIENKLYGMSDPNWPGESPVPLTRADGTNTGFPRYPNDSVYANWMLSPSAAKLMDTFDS

[6] = biological target: Serine/threonine-protein kinase pim-2 (Homo sapiens, UniProt Q9P1W9)
Serine/threonine-protein kinase pim-2, sequence (Q9P1W9 whole entry): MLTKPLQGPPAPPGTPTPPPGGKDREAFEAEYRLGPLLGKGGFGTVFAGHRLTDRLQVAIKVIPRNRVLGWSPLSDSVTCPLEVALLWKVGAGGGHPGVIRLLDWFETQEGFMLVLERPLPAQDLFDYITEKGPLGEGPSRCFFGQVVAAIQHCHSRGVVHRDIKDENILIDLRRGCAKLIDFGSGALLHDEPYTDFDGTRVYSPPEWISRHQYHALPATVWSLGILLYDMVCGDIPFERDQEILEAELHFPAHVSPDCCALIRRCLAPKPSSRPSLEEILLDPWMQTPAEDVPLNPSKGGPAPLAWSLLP

[7] = biological target: T1, Phosphatidylinositol 5-phosphate 4-kinase type-2 alpha (Homo sapiens, UniProt P48426)
T1 sequence (P48426 whole entry): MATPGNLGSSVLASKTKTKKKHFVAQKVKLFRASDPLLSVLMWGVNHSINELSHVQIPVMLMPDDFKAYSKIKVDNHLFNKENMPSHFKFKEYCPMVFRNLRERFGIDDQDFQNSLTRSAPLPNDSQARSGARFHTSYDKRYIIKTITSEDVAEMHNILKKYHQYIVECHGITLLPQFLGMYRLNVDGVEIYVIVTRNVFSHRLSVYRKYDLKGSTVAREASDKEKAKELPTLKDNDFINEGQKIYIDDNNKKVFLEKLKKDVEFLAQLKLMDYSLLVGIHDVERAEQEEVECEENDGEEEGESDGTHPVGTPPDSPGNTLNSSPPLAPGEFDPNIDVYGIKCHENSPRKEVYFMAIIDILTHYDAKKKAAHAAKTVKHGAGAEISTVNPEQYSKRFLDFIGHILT

[8] = biological target: Dual specificity protein kinase CLK2 (Homo sapiens, UniProt P49760)
Dual specificity protein kinase CLK2, sequence (P49760 whole entry, the tested form may be a part): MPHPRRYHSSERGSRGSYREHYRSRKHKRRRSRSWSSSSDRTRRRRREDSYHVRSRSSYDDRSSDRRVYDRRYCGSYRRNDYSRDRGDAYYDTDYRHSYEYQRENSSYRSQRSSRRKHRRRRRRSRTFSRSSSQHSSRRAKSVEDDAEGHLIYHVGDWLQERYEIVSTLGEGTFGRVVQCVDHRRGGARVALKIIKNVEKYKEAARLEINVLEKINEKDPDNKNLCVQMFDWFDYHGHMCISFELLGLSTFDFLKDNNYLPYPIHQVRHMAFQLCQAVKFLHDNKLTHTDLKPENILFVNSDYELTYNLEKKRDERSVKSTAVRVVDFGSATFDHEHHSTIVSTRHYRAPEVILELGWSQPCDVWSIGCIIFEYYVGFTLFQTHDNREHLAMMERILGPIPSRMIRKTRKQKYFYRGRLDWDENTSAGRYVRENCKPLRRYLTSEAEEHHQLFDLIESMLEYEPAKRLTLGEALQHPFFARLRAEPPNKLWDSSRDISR

[9] = biological target: Uncharacterized aarF domain-containing protein kinase 5 (Homo sapiens, UniProt Q3MIX3)
Uncharacterized aarF domain-containing protein kinase 5, sequence (Q3MIX3 whole entry, the tested form may be a part): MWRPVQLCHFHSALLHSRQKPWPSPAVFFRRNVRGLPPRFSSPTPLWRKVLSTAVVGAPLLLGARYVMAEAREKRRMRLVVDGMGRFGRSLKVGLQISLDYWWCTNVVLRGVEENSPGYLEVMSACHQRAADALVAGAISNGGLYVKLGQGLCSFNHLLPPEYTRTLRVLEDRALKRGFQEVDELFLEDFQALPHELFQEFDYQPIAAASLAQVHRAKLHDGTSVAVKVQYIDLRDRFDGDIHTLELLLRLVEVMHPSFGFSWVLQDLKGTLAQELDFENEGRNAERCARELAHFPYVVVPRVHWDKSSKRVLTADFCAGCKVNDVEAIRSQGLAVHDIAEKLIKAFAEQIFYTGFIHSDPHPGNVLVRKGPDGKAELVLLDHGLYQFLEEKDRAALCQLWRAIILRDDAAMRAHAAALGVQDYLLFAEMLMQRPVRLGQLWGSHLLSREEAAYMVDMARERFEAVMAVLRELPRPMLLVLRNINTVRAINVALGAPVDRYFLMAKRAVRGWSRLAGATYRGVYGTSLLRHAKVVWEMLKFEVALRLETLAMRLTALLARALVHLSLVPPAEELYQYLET

[10] = biological target: Dual specificity protein kinase CLK3 (Homo sapiens, UniProt P49761); format: subcellular, K-562, COLO 205, SK-N-BE(2) and MV-4-11, Cell lysate; conditions: read-out: Kd apparent
[11] = biological target: High affinity nerve growth factor receptor (Homo sapiens, UniProt P04629)
High affinity nerve growth factor receptor, sequence (P04629 whole entry): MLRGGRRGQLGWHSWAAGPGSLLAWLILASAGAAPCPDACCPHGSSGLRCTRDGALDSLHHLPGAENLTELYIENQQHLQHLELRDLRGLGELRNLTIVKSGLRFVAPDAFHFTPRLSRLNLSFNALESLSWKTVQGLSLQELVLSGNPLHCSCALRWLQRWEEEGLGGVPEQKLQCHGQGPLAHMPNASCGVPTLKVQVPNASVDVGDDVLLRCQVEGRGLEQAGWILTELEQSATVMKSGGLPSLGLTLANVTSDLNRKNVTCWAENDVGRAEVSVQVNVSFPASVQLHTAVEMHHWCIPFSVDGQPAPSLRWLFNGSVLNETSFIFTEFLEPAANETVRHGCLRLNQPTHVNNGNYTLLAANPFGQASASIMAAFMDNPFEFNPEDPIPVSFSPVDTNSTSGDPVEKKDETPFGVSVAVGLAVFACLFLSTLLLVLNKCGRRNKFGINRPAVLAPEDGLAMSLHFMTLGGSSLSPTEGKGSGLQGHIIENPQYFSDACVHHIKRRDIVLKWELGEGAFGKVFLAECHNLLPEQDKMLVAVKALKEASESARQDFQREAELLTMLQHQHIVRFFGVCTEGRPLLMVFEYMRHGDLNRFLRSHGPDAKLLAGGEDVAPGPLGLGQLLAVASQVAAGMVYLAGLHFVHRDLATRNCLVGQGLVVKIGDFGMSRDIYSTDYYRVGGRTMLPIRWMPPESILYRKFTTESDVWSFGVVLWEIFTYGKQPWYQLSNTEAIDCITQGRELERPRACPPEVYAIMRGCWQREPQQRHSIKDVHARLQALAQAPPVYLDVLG

[12] = biological target: T2, Inhibitor of nuclear factor kappa-B kinase subunit epsilon (Homo sapiens, UniProt Q14164)
T2 sequence (Q14164 whole entry): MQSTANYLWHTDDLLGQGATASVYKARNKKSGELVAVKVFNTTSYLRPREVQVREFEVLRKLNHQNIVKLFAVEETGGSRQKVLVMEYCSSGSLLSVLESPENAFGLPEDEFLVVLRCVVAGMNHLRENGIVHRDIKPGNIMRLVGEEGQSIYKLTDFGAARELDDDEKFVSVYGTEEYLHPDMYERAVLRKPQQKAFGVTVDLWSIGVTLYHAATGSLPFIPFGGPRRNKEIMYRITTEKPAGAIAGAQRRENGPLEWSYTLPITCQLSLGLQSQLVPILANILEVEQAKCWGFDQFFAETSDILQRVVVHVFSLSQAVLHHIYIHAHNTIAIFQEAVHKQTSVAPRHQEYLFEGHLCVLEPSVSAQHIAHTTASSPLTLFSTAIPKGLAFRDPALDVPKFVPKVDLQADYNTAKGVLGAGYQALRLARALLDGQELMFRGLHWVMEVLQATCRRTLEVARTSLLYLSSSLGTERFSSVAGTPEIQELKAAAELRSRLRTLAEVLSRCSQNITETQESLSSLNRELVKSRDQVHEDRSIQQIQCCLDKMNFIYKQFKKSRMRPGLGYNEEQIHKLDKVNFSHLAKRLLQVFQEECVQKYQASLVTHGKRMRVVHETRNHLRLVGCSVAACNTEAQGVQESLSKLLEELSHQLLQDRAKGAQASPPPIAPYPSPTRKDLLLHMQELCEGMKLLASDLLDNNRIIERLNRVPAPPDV

[13] = biological target: Guanine nucleotide-binding protein G(i) subunit alpha-2 (Homo sapiens, UniProt P04899)
Guanine nucleotide-binding protein G(i) subunit alpha-2, sequence (P04899 whole entry): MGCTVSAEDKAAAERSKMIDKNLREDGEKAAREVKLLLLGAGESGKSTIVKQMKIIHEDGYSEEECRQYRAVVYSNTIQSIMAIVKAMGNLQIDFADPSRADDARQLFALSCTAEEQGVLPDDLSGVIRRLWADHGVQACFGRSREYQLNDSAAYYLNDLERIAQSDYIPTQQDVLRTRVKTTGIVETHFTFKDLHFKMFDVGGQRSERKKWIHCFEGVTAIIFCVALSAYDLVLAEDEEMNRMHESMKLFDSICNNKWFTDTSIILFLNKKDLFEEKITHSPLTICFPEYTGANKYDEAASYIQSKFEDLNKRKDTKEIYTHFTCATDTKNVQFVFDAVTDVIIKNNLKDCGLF

[14] = biological target: Serine/threonine-protein kinase 38-like (Homo sapiens, UniProt Q9Y2H1)
Serine/threonine-protein kinase 38-like, sequence (Q9Y2H1 whole entry): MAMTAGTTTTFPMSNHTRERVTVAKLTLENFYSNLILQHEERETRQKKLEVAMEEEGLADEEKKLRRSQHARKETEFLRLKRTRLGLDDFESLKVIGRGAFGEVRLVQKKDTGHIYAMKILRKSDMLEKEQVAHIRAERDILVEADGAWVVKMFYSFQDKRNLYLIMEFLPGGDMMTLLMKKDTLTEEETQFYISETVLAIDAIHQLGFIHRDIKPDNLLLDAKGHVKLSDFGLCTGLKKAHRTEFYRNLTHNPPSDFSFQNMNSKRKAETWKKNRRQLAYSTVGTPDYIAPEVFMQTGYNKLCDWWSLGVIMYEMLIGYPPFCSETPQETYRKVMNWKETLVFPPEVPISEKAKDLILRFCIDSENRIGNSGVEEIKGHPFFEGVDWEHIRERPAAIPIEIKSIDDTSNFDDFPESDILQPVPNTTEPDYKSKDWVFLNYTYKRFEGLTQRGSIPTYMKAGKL

[15] = biological target: Serine/threonine-protein kinase ATR (Homo sapiens, UniProt Q13535)
[16] = biological target: T3, Adenine phosphoribosyltransferase (Homo sapiens, UniProt P07741)
T3 sequence (P07741 whole entry): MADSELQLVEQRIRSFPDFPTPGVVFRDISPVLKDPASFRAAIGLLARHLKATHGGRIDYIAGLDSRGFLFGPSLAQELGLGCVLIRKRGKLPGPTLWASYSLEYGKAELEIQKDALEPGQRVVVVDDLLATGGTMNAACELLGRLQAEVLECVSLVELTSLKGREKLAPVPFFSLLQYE
Further: in the data inactive means no Kd found up to 30 µM.

Serine/threonine-protein kinase Nek7, sequence (Q8TDX7 whole entry): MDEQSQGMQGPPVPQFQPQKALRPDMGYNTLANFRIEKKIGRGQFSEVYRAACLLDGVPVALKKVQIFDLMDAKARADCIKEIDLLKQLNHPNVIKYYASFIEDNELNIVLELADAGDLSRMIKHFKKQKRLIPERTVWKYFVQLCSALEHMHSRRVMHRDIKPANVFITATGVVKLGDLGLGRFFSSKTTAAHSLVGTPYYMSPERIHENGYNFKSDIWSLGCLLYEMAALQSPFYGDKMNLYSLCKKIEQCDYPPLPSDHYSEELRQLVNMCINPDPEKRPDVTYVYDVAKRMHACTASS

SMILES	Kd [1]	Kd [2]	Kd [3]	Kd [4]	Kd [5]	Kd [6]	Kd [7]	Kd [8]	Kd [9]	Kd [10]	Kd [11]	Kd [12]	Kd [13]	Kd [14]	Kd [15]	Kd [16]
COc1cc2nccc(Oc3ccc(NC(=O)NC4CC4)c(Cl)c3)c2cc1C(N)=O [LENVATINIB]	> 30 µM (inactive)	> 30 µM (inactive)		> 30 µM (inactive)			> 30 µM (inactive)	> 30 µM (inactive)	> 30 µM (inactive)	> 30 µM (inactive)		> 30 µM (inactive)	> 30 µM (inactive)	> 30 µM (inactive)		> 30 µM (inactive)
CC(=O)Nc1cccc(-n2c(=O)n(C3CC3)c(=O)c3c(Nc4ccc(I)cc4F)n(C)c(=O)c(C)c32)c1 [TRAMETINIB]	> 30 µM (inactive)		> 30 µM (inactive)	> 30 µM (inactive)	> 30 µM (inactive)	> 30 µM (inactive)	> 30 µM (inactive)	> 30 µM (inactive)	> 30 µM (inactive)	> 30 µM (inactive)	> 30 µM (inactive)	> 30 µM (inactive)	> 30 µM (inactive)			> 30 µM (inactive)
CNC(=O)c1cc(Oc2ccc(NC(=O)Nc3ccc(Cl)c(C(F)(F)F)c3)c(F)c2)ccn1 [REGORAFENIB]	> 30 µM (inactive)	> 30 µM (inactive)	> 30 µM (inactive)	> 30 µM (inactive)		> 30 µM (inactive)	> 30 µM (inactive)	> 30 µM (inactive)		> 30 µM (inactive)	> 30 µM (inactive)	> 30 µM (inactive)	> 30 µM (inactive)			> 30 µM (inactive)
COCCNCc1ccc(-c2cc3nccc(Oc4ccc(NC(=S)NC(=O)Cc5ccc(F)cc5)cc4F)c3s2)nc1 [GLESATINIB]	> 30 µM (inactive)	> 30 µM (inactive)	> 30 µM (inactive)	> 30 µM (inactive)	> 30 µM (inactive)	> 30 µM (inactive)	> 30 µM (inactive)	> 30 µM (inactive)	> 30 µM (inactive)	> 30 µM (inactive)	> 30 µM (inactive)	> 30 µM (inactive)	> 30 µM (inactive)			> 30 µM (inactive)
COc1cc(OC)c(/C=C/S(=O)(=O)Cc2ccc(OC)c(NCC(=O)O)c2)c(OC)c1 [RIGOSERTIB]	> 30 µM (inactive)	> 30 µM (inactive)	> 30 µM (inactive)	> 30 µM (inactive)	> 30 µM (inactive)	> 30 µM (inactive)	> 30 µM (inactive)	> 30 µM (inactive)	> 30 µM (inactive)	0.04 µM	> 30 µM (inactive)	> 30 µM (inactive)	> 30 µM (inactive)		> 30 µM (inactive)	
CC[C@@H]1C(=O)N(C)c2cnc(Nc3ccc(C(=O)N[C@H]4CC[C@H](N5CCN(CC6CC6)CC5)CC4)cc3OC)nc2N1C(C)C [VOLASERTIB]	> 30 µM (inactive)	> 30 µM (inactive)	> 30 µM (inactive)	> 30 µM (inactive)	> 30 µM (inactive)		> 30 µM (inactive)	> 30 µM (inactive)	> 30 µM (inactive)	> 30 µM (inactive)	> 30 µM (inactive)	> 30 µM (inactive)	> 30 µM (inactive)	> 30 µM (inactive)		> 30 µM (inactive)
CN1CCC(COc2cnc(-c3cccc(Cn4nc(-c5cccc(C#N)c5)ccc4=O)c3)nc2)CC1 [TEPOTINIB]		> 30 µM (inactive)			> 30 µM (inactive)		> 30 µM (inactive)		> 30 µM (inactive)	> 30 µM (inactive)	> 30 µM (inactive)	> 30 µM (inactive)	> 30 µM (inactive)	> 30 µM (inactive)	> 30 µM (inactive)	> 30 µM (inactive)
CNS(=O)(=O)Nc1nccc(Cc2c(C)c3ccc(Oc4ncccn4)cc3oc2=O)c1F [AVUTOMETINIB]	> 30 µM (inactive)	> 30 µM (inactive)	> 30 µM (inactive)	> 30 µM (inactive)	> 30 µM (inactive)	> 30 µM (inactive)	> 30 µM (inactive)	> 30 µM (inactive)	> 30 µM (inactive)	> 30 µM (inactive)		> 30 µM (inactive)	> 30 µM (inactive)			> 30 µM (inactive)
C=CC(=O)N1CCC(Oc2cc3c(Nc4ccc(Cl)c(Cl)c4F)ncnc3cc2OC)CC1 [POZIOTINIB]	> 30 µM (inactive)				1.19 µM (active)					> 30 µM (inactive)	> 30 µM (inactive)	> 30 µM (inactive)	> 30 µM (inactive)	> 30 µM (inactive)		

Now from value to molecule:

Kd [1]	Kd [2]	Kd [3]	Kd [4]	Kd [5]	Kd [6]	Kd [7]	Kd [8]	Kd [9]	Kd [10]	Kd [11]	Kd [12]	Kd [13]	Kd [14]	Kd [15]	Kd [16]	SMILES
> 30 µM (inactive)	> 30 µM (inactive)	> 30 µM (inactive)	> 30 µM (inactive)	0.388 µM (active)	> 30 µM (inactive)	> 30 µM (inactive)	> 30 µM (inactive)	> 30 µM (inactive)	> 30 µM (inactive)	> 30 µM (inactive)	> 30 µM (inactive)	> 30 µM (inactive)				O=C(O)[C@]1(Cc2cccc(Nc3nccs3)n2)CC[C@@H](Oc2cccc(Cl)c2F)CC1 [MK-5108]
> 30 µM (inactive)	> 30 µM (inactive)	> 30 µM (inactive)		> 30 µM (inactive)		> 30 µM (inactive)	0.0004 µM (active)	> 30 µM (inactive)	> 30 µM (inactive)	> 30 µM (inactive)	> 30 µM (inactive)	> 30 µM (inactive)	> 30 µM (inactive)	> 30 µM (inactive)		O=C1NC(=O)/C(=C/c2ccc3nccc(-c4ccncc4)c3c2)S1 [GSK-1059615]
> 30 µM (inactive)	> 30 µM (inactive)	> 30 µM (inactive)	> 30 µM (inactive)	> 30 µM (inactive)	> 30 µM (inactive)	> 30 µM (inactive)	> 30 µM (inactive)	> 30 µM (inactive)	> 30 µM (inactive)	> 30 µM (inactive)	> 30 µM (inactive)	> 30 µM (inactive)		> 30 µM (inactive)	> 30 µM (inactive)	Cn1cc(-c2ccc3nnc(C(F)(F)c4ccc5ncccc5c4)n3n2)cn1 [JNJ-38877605]
	> 30 µM (inactive)	> 30 µM (inactive)	> 30 µM (inactive)	1.33 µM (active)			> 30 µM (inactive)		> 30 µM (inactive)	> 30 µM (inactive)	0.342 µM (active)	> 30 µM (inactive)		> 30 µM (inactive)	> 30 µM (inactive)	O=C(Nc1ccc(-c2ccnc(Nc3ccc(N4CCOCC4)cc3)n2)cc1)C1CCCN1 (stereo not drawn) [XL-019]
		> 30 µM (inactive)	> 30 µM (inactive)	0.029 µM (active)	> 30 µM (inactive)	> 30 µM (inactive)	> 30 µM (inactive)	> 30 µM (inactive)	> 30 µM (inactive)	2.25 µM	> 30 µM (inactive)			> 30 µM (inactive)	> 30 µM (inactive)	COc1cc(CCc2cc(NC(=O)c3ccc(N4C[C@@H](C)N[C@@H](C)C4)cc3)n[nH]2)cc(OC)c1 [AZD-4547]
